Legend:
human bone marrow MSC [1] = assay: RNA content of MSC-derived exosomes by qRT-PCR; type: cell-based; settings: 250 μg/mL
Protocol: After 24 hours of culture, representative images were captured from (+) Tre and (−) Tre cultures. Conditioned media was collected from each replicate, divided into two samples of appropriate volumes, and analyzed separately for: 1) secreted proteins (Myriad RBM InflammationMAP® 1.0) and 2) exosome RNA content. Cells were lysed directly from culture flasks, processed for total RNA isolation, and analyzed for gene expression by microarray (Illumina Human HT12 Expression BeadChip). To characterize the effect of treprostinil on MSC, cells were analyzed by qRT-PCR and microarray to identify changes in gene expression (4). Cell culture supernatant media was assayed for selected inflammatory cytokines by bead-based immunoassays (2). Secreted vesicles were isolated from cell culture supernatant, and assayed for RNA content by qRT-PCR (7). Vesicles were also assayed for size and concentration by tunable resistive pulse sensing, or TRPS (7) (refer to Example 4). Total RNA was extracted from exosomal preparations, and qRT-PCR was performed with the same primer/probe sets used in experiments with the parent cells (refer to FIG. 8). VEGF-A gene transcripts present in MSC-derived exosomes were increased ˜4-fold as a result of treprostinil exposure (FIG. 10).

human bone marrow MSC [2] = assay: VEGF-A gene expression in MSC by qRT-PCR; type: cell-based
Protocol: Conditioned media was assayed for VEGF by ELISA after 24 hours of treprostinil exposure (n=4 replicates). Cells from those replicates were lysed, and RNA was extracted to determine VEGF-A gene expression by qRT-PCR. Cells from the remaining two (2) replicates were trypsinized, and assayed for cell viability by trypan blue exclusion. Cell culture supernatant was assayed for VEGF protein by ELISA (FIG. 3A, n=4). Cell lysates from those cultures were assayed for VEGF-A gene expression by qRT-PCR, and normalized to the control value (FIG. 3B, n=4). In both figures, error bars represent the standard deviation in each test group. To characterize the effect of treprostinil on MSC, cells were analyzed by qRT-PCR and microarray to identify changes in gene expression (4). Cell culture supernatant media was assayed for selected inflammatory cytokines by bead-based immunoassays (2). Secreted vesicles were isolated from cell culture supernatant, and assayed for RNA content by qRT-PCR (7). Vesicles were also assayed for size and concentration by tunable resistive pulse sensing, or TRPS (7) (refer to Example 4).

[3] = 24 h (FIG. 8, lower panel), p<0.05

With `CCCCC[C@H](O)CC[C@@H]1[C@H]2Cc3cccc(OCC(=O)O)c3C[C@H]2C[C@H]1O` [treprostinil] the “let-7b abundance vs controls” value (human bone marrow MSC [1]; [3]) was “less prevalent”, the “miR-21 abundance vs controls” value (human bone marrow MSC [1]; [3]) was “more abundant” and the “VEGF-A gene transcripts in MSC-derived exosomes, fold increase” value (human bone marrow MSC [1]; 24 h (FIG. 10)) was roughly 4 fold. The “miR-21 in MSC-derived exosomes” value (human bone marrow MSC [1]; 24 h (FIG. 10), p<0.05) was “significantly more abundant”, the “miR-199-3p in MSC-derived exosomes” value (human bone marrow MSC [1]; 24 h (FIG. 10), p<0.05) was “significantly more abundant” and the “VEGF-A gene expression vs untreated controls” value (human bone marrow MSC [2]; 100 μg/mL, 24 h) was “not significantly different from untreated controls”. The “VEGF-A gene expression, fold increase” value (human bone marrow MSC [2]; 200 μg/mL, 24 h) was “over 5 fold” and the “VEGF-A expression, fold over untreated controls (qRT-PCR)” value (human bone marrow MSC [2]; 250 μg/mL, 24 h (FIG. 8, upper panel)) was roughly 3.5 fold.
